3 compounds from US11851681B2, “Cell preparation method” (KYOTO PREFECTURAL PUBLIC UNIVERSITY CORPORATION, priority 2015, dated 2023) can be followed below.

“Also recorded” adds a separate entry of the source.

Common to all, as to format: cell-based
The subject of assay [1] is Human normal skin-derived fibroblasts (HDFs). Briefly: Real-time RT-PCR of UCP1, four inhibitors, Example 39. Particulars: for conversion of fibroblast to brown adipocyte, UCP1 mRNA: 4 μM, 8 μM, 12 μM or 16 μM in adipocyte induction medium Day 1 to Day 8, then compound-free to day 14, FIG. 43. The method, then:
The addition concentration of the compound was 4 μM, 8 μM, 12 μM or 16 μM. […] Thereafter, in Day 9-Day 14, culturing was performed in a medium free of ALK5 inhibitor II, LY2157299, SB431542, D4476.
Background: Real-time PCR tracks product formation cycle by cycle.

Assay [2] concerns human dermal fibroblasts; HDFs. In words: Alizarin Red S staining (staining figure), fibroblast to osteoblast, Example 1. Particulars: each compound 2 μM in calcification induction medium; day 24; FIG. 1. The method, then:
It was washed 3 times with sterile distilled water. […] The well after staining was washed with sterile distilled water and photographed.
The concentrations of the compounds are as follows: • D4476: 2 μM • ALK5 inhibitor II: 2 μM • SB431542: 2 μM.

Assay [3] deals with human dermal fibroblasts; HDFs. Briefly: Alizarin Red S staining (absorbance OD 550 nm), Example 2. Particulars: each compound 2 μM in calcification induction medium; day 24; FIG. 2. On the procedure:
(§1) The concentrations of the compounds are as follows: • D4476: 2 μM • SB431542: 2 μM • ALK5 inhibitor II: 2 μM.

For assay [4], the system named is human dermal fibroblasts; HDFs. Briefly: Bodipy staining quantification in WA medium, four inhibitors, Example 49. The following applies: 16 μM compound and 1 μM Rosiglitazone, day 12, FIG. 53.
The subject of assay [5] is human dermal fibroblasts; HDFs. In words: Real-time RT-PCR of Osteocalcin and Alkaline Phosphatase, Example 3. The following applies: each compound 2 μM in calcification induction medium; day 24; FIG. 3. The method, then:
as §1

Assay [6] has as its system human dermal fibroblasts; HDFs. Briefly: BODIPY staining and fluorescence intensity, Example 15. Particulars: compound 2 μM in addition to T3 1 nM and Rosiglitazone 1 μM; day 14; FIG. 15A, 15B. On the procedure: The concentrations of the additives are as follows: • T3: 1 nM • Rosiglitazone: 1 μM • D4476: 2 μM • SB431541: 2 μM • ALK5 inhibitor II: 2 μM.
The cells were fixed with 4% para-formaldehyde, washed with PBS(−), reacted for 5 min with BODIPY 493/503 (Invitrogen)/PBS solution at room temperature and washed 3 times with PBS. The cells were photographed with a fluorescence microscope at ×200 magnification and the fluorescence intensity was measured.

For assay [7], the system named is human dermal fibroblasts; HDFs. In words: Real-time RT-PCR of AdipoQ, Example 14. Particulars: D4476, SB431542, ALK5 Inhibitor II 2 μM, PD0325901 1 μM, in addition to T3 and Rosiglitazone; day 14; FIG. 14. The method, then: The concentrations of the additives are as follows: • T3: 1 nM • Rosiglitazone: 1 μM • D4476: 2 μM. • Pifithrin alpha [p53 inhibitor]: 5 μM • PD0325901: 1 μM • SB431542: 2 μM • ALK5 Inhibitor II: 2 μM.

Assay [8] has as its system Human normal skin-derived fibroblasts (HDFs). In words: Immunostaining of UCP1, four inhibitors, Example 40. The following applies: LY2157299 8 μM, SB431542 4 μM, D4476 4 μM, Day 1 to Day 8, day 14, FIG. 44; for conversion of fibroblast to brown adipocyte, UCP1 protein: ALK5 inhibitor II 4 μM; for staining with anti-UCP1 antibody: groups 3-6: ALK5 inhibitor II 4 μM.
Description: Human normal skin-derived fibroblasts (HDFs) were suspended in a general medium (DMEM added with 10% FBS). […] The adipocyte induction medium is DMEM added with 1 nM T3, 1 μM Rosiglitazone, 0.5 mM 3-isobutyl-1-methylxanthine (IBMX), 0.5 μM dexamethasone, 1 μg/mL Insulin and 10% FBS. Once every 2 days, the culture medium was exchanged with a fresh one, and culturing was performed from Day 1 to Day 8. Thereafter, from Day 9 to Day 14, the cells were cultured in an adipocyte induction medium free of ALK5 inhibitor II, LY2157299, SB431542, D4476. On day 14, the culture medium was removed by suction from each well, and washed with PBS(−). After fixing with 4% para-formaldehyde, the well was washed with PBS (−), Permanent wave Buffer (0.2% Triton-X addition PBS) was added and the well was incubated for 15 min. After washing 3 times with PBS(−), Blocking One was added, and the mixture was incubated at room temperature for 60 min. Anti-UCP-1 antibody (RD MAB6158) was added and the mixture was reacted for 2 hrs at room temperature, and washed 3 times with Wash buffer. CF488-conjugated anti-mouse Ig antibody (Biotum 20014) was added and the mixture was reacted for 2 hrs at room temperature, and washed 3 times with PBS(−). After nuclear staining with SlowFade Gold antifade reagent with DAPI manufactured by Lifetechnology, the cells were photographed with a fluorescence microscope at ×100 magnification.
Assay [9] has as its system human dermal fibroblasts; HDFs. Briefly: Real-time RT-PCR of CIDEA, Example 13. The following applies: compound 2 μM in addition to T3 1 nM and Rosiglitazone 1 μM, adipocyte induction medium; day 14; FIG. 13. The method, then:
(§2) The concentrations of the additives are as follows: • T3: 1 nM • Rosiglitazone: 1 μM • D4476: 2 μM • Pifithrin alpha [p53 inhibitor]: 5 μM • SB431542: 2 μM • ALK5 Inhibitor II: 2 μM.

Assay [10] concerns human dermal fibroblasts; HDFs. Briefly: Bodipy staining in WA medium, four inhibitors, Example 48. Particulars: day 12, FIG. 52; for lipid droplets stained with Bodipy, inhibitor alone: WA medium added with 16 μM compound alone; for lipid droplets stained with Bodipy / conversion to white adipocyte, inhibitor and Rosiglitazone: WA medium added with 16 μM compound and 1 μM Rosiglitazone.

In assay [11] the test system is Human normal skin-derived fibroblasts (HDFs). Briefly: Alizarin Red S and ALP staining, absorbance, TGF-β pathway inhibitor panel, Examples 31-32. The following applies: description, conditions not given. The method, then:
On day 21, the culture medium was removed from a part of the well, washed with PBS(-), and fixed with a fixative. It was washed 3 times with sterile distilled water. […] In the experiment of Example 31, the solution after staining with the Alizarin Red S staining solution was collected in a 96 well plate and the absorbance (OD 550 nm) was measured with an absorption spectrometer.

Assay [12] relates to human dermal fibroblasts; HDFs. In words: Real-time PCR of AdipoQ, FABP4, PPAR-γ, four inhibitors with Rosiglitazone, Example 50. The following applies: WA medium added with 1 μM Rosiglitazone and 16 μM compound; day 12. The text has this:
On day 12, RNA was recovered from the cells and, in the same manner as in Example 47, mRNA of AdipoQ, FABP4 (mature adipocyte marker), and PPAR-γ (preadipocyte marker) was quantified.

Assay [13] concerns human dermal fibroblasts; HDFs. In words: Alizarin Red S staining and absorbance, compound panel, Examples 29-30. Particulars: calcification induction medium; compounds 2 μM (Pifthrin-α 5 μM, DZnep 50 nM); day 28; FIG. 33, 34. The method, then:
The compounds added to the medium and the concentrations thereof are as follows. • I-BET151: 2 μM • Pifthrin-α: 5 μM • PD0325901: 2 μM • 2-Me-5HT: 2 μM • CX4945: 2 μM • CHIR99021: 2 μM • Forskolin: 2 μM • DZnep: 50 nM • D4476: 2 μM • SB431542: 2 μM • ALK5 i II: 2 μM.
In the experiment of Example 29, the solution after staining with the Alizarin Red S staining solution was collected in a 96 well plate and the absorbance (OD 550 nm) was measured with an absorption spectrometer.

Assay [14] has as its system human dermal fibroblasts; HDFs. Briefly: Oil Red O staining, fibroblast to brown adipocyte, Example 12. Particulars: compound 2 μM in addition to T3 1 nM and Rosiglitazone 1 μM, adipocyte induction medium; day 14; FIG. 12. On the procedure:
as §2
Then, the cells were washed with sterile distilled water and photographed with a phase contrast microscope at ×100 magnification.

For assay [15], the system named is Human Epidermal Keratinocyte; NHEK (AD). Briefly: Real-time RT-PCR of UCP1 and CIDEA, keratinocyte to brown adipocyte, Example 43. Particulars: K-adipocyte induction medium; ALK5 inhibitor II 4 μM or LY2157299 8 μM, Day 1 to Day 8; day 14; FIG. 47.
Description: Normal human epidermal keratinocyte (Human Epidermal Keratinocyte; NHEK (AD)) were suspended in a serum-free liquid medium for normal human epidermal keratinocyte proliferation (HuMedia-KG2; manufactured by Kurabo).
The K-adipocyte induction medium is HuMedia-KG2 added with 1 nM T3, 1 μM Rosiglitazone, 0.5 mM 3-isobutyl-1-methylxanthine (IBMX), 0.5 μM dexamethasone, and 1 μg/mL Insulin.
Once every 2 days, the culture medium was exchanged with a fresh one, and culturing was performed from Day 1 to Day 8. Thereafter, from Day 9 to Day 14, the cells were cultured in a medium free of ALK5 inhibitor II or LY2157299. On day 14, the culture medium was removed by suction from each well, washed with PBS(−) and total RNA was extracted from the cells by using RNA easy Mini Kit manufactured by Qiagen. cDNA was synthesized from the RNA by using Rever Tra Ace qPCR RT Master Mix. This cDNA was admixed with Real-time PCR Master Mix, primers specific to UCP-1 gene, CIDEA gene or β actin gene and Taqman probe. qRT-PCR was performed using AB7300 Real-time PCR system. The mRNA level of UCP1 gene and CIDEA gene was quantified as a ratio to β-actin gene mRNA level, and calculated with the value of fibroblast cultured in the general medium as 1.
Assay [16] deals with Human normal skin-derived fibroblasts (HDFs). In words: Real-time RT-PCR of UCP1, CIDEA, KCNK3, Example 41. Particulars: ALK5 inhibitor II or LY2157299 (8 μM), Day 1 to Day 8; day 14; FIG. 45.
Description: Human normal skin-derived fibroblasts (HDFs) were suspended in a general medium (DMEM added with 10% FBS). […] The adipocyte induction medium is DMEM added with 1 nM T3, 1 μM Rosiglitazone, 0.5 mM 3-isobutyl-1-methylxanthine (IBMX), 0.5 μM dexamethasone, 1 μg/mL Insulin and 10% FBS. Once every 2 days, the culture medium was exchanged with a fresh one, and culturing was performed from Day 1 to Day 8. Thereafter, from Day 9 to Day 14, the cells were cultured in an adipocyte induction medium free of ALK5 inhibitor II or LY2157299. On day 14, the culture medium was removed by suction from each well, washed with PBS(−) and total RNA was extracted from the cells by using RNA easy Mini Kit manufactured by Qiagen. cDNA was synthesized from the RNA by using Rever Tra Ace qPCR RT Master Mix. This cDNA was admixed with Real-time PCR Master Mix, primers specific to UCP-1 gene, CIDEA gene, KCNK3 gene or β actin gene and Taqman probe. qRT-PCR was performed using AB7300 Real-time PCR system. The mRNA level of UCP1 gene was quantified as a ratio to β-actin gene mRNA, and calculated with the value of fibroblast cultured in the general medium as 1.

For the compound `NC(=O)c1ccc(-c2nc(-c3ccc4c(c3)OCO4)c(-c3ccccn3)[nH]2)cc1` [SB431542, 4-[4-(1,3-Benzodioxol-5-yl)-5-(pyridin-2-yl)-1H-imidazol-2-yl]benzamide], the “conversion of fibroblast to brown adipocyte, UCP1 mRNA” value (from here on “conversion of fibroblast … UCP1 mRNA”) in assay [1] was “converted fibroblast to brown adipocyte strongly expressing UCP1 gene”. In addition, the “conversion of human fibroblast to osteoblast, Alizarin Red S staining (staining figure)” value in [2] was “converted to osteoblast having calcified is bone matrix production ability”. In addition, the “conversion of human fibroblast to osteoblast, Alizarin Red S staining (absorbance OD 550 nm)” value in [3] is reported as “converted to osteoblast having calcified bone matrix production ability”. Moreover, the “fat accumulation (BODIPY) / conversion to white adipocyte, co-addition of Rosiglitazone” value (“fat accumulation (BODIPY) / conversion” for short) in assay [4] was “more strongly induced fat accumulation than by the addition of Rosiglitazone alone”. In addition, the “conversion of human fibroblast to osteoblast, Osteocalcin and Alkaline Phosphatase mRNA” value in assay [5] was “converted to osteoblast expressing osteocalcin and alkaline phosphatase gene”. For the same compound, the “conversion of fibroblast to brown adipocytes, BODIPY staining and fluorescence intensity” value in [6] is listed as “converted fibroblast to brown adipocytes having lipid droplets stained with BODIPY”. In addition, the “conversion of fibroblast to brown adipocytes, AdipoQ mRNA” value in assay [7] is recorded as “converted fibroblast to brown adipocytes expressing mRNA of AdipoQ gene”. For the same compound, in assay [8], the “conversion of fibroblast to brown adipocyte, UCP1 protein” value (“conversion of fibroblast … UCP1 protein” for short) is on record as “converted fibroblast to brown adipocyte expressing UCP1 protein” and the “staining with anti-UCP1 antibody” value is on record as “many cells were stained with anti-UCP1 antibody”. Besides, in assay [9], the “conversion of fibroblast to brown adipocytes, CIDEA mRNA” value is “converted fibroblast to brown adipocytes expressing mRNA of CIDEA gene”. Moreover, in [10], the “lipid droplets stained with Bodipy, inhibitor alone” value is “only a few cells contained lipid droplets stained with Bodipy”; the “lipid droplets stained with Bodipy / conversion to white adipocyte, inhibitor and Rosiglitazone” value was “many cells were stained”. Moreover, the “efficiency in converting fibroblast to osteoblast (summary statement)” value in [11] is “highly efficient in converting fibroblast to osteoblast”. In [12], the “conversion of human fibroblast to white adipocyte (mRNA markers)” value (“conversion … (mRNA markers)” below) is “converted human fibroblast to white adipocyte”. Further, the “conversion from fibroblast to osteoblast, Alizarin Red S staining and absorbance” value in [13] is “induce conversion from fibroblast to osteoblast”. Further, the “conversion of fibroblast to brown adipocyte, Oil Red O staining” value in [14] was “converted fibroblast to brown adipocyte”.

As for `NC(=O)c1ccc(-c2nc(-c3ccc4c(c3)OCCO4)c(-c3ccccn3)[nH]2)cc1` [D4476, 4-[4-(2,3-dihydro-1,4-benzodioxin-6-yl)-5-(2-pyridinyl) 1H-imidazol-2-yl]-benzamide], the “conversion of fibroblast … UCP1 mRNA” value in assay [1] was “converted fibroblast to brown adipocyte strongly expressing UCP1 gene”. In addition, the “conversion of human fibroblast to osteoblast, Alizarin Red S staining (staining figure)” value in [2] is “converted to osteoblast having calcified is bone matrix production ability”. Also, the “conversion of human fibroblast to osteoblast, Alizarin Red S staining (absorbance OD 550 nm)” value in assay [3] is reported as “converted to osteoblast having calcified bone matrix production ability”. Moreover, the “fat accumulation (BODIPY) / conversion” value in [4] was “more strongly induced fat accumulation than by the addition of Rosiglitazone alone”. In addition, the “conversion of human fibroblast to osteoblast, Osteocalcin and Alkaline Phosphatase mRNA” value in [5] was “converted to osteoblast expressing osteocalcin and alkaline phosphatase gene”. In assay [6], the “conversion of fibroblast to brown adipocytes, BODIPY staining and fluorescence intensity” value is “converted fibroblast to brown adipocytes having lipid droplets stained with BODIPY”. Besides, the “conversion of fibroblast to brown adipocytes, AdipoQ mRNA” value in assay [7] is “converted fibroblast to brown adipocytes expressing mRNA of AdipoQ gene”. Also, in assay [8], the “conversion of fibroblast … UCP1 protein” value is “converted fibroblast to brown adipocyte expressing UCP1 protein” and the “staining with anti-UCP1 antibody” value was “many cells were stained with anti-UCP1 antibody”. Moreover, in [9], the “conversion of fibroblast to brown adipocytes, CIDEA mRNA” value is recorded as “converted fibroblast to brown adipocytes expressing mRNA of CIDEA gene”. In addition, in assay [10], the “lipid droplets stained with Bodipy, inhibitor alone” value was “only a few cells contained lipid droplets stained with Bodipy”; the “lipid droplets stained with Bodipy / conversion to white adipocyte, inhibitor and Rosiglitazone” value was “many cells were stained”. In assay [11], the “efficiency in converting fibroblast to osteoblast (summary statement)” value is on record as “highly efficient in converting fibroblast to osteoblast”. The “conversion … (mRNA markers)” value in assay [12] was “converted human fibroblast to white adipocyte”. Also, the “conversion from fibroblast to osteoblast, Alizarin Red S staining and absorbance” value in assay [13] is “induce conversion from fibroblast to osteoblast”. Besides, the “conversion of fibroblast to brown adipocyte, Oil Red O staining” value in [14] is “converted fibroblast to brown adipocyte”.

Take `Cc1cccc(-c2nn3c(c2-c2ccnc4ccc(C(N)=O)cc24)CCC3)n1` [LY2157299, 4-[5,6-dihydro-2-(6-methyl-2-pyridinyl)-4H-pyrrolo[1,2-b]pyrazol-3-yl]-6-quinolinecarboxamide]: in assay [15], the “conversion of epidermal keratinocyte to brown adipocyte, UCP1 and CIDEA mRNA” value was “converted normal human epidermal keratinocyte to brown adipocyte expressing UCP1 gene and CIDEA gene”. The “conversion of fibroblast … UCP1 mRNA” value in [1] is on record as “converted fibroblast to brown adipocyte strongly expressing UCP1 gene; also recorded: secondly”. Further, the “efficiency in converting fibroblast to brown adipocyte (summary statement)” value in assay [1] (description, conditions not given) is reported as “highly efficient in converting fibroblast to brown adipocyte”. Further, the “fat accumulation (BODIPY) / conversion” value in [4] is recorded as “more strongly induced fat accumulation than by the addition of Rosiglitazone alone”. For the same compound, the “conversion of fibroblast to brown adipocyte, UCP1, CIDEA and KCNK3 mRNA” value in [16] is “converted fibroblast to brown adipocyte expressing UCP1 gene, CIDEA gene and KCNK3 gene”. Further, in [8], the “conversion of fibroblast … UCP1 protein” value is on record as “converted fibroblast to brown adipocyte expressing UCP1 protein; also recorded: secondly” and the “staining with anti-UCP1 antibody” value is listed as “many cells were stained with anti-UCP1 antibody; also recorded: the second highest”. Further, in assay [10], the “lipid droplets stained with Bodipy, inhibitor alone” value is listed as “only a few cells contained lipid droplets stained with Bodipy”; the “lipid droplets stained with Bodipy / conversion to white adipocyte, inhibitor and Rosiglitazone” value is “many cells were stained”. Besides, the “conversion … (mRNA markers)” value in assay [12] is recorded as “converted human fibroblast to white adipocyte”.
